The values below come from US7297700B2, “Bicycloheteroaryl compounds as P2X7 modulators and uses thereof” (Renovis, Inc., priority 2005, dated 2007).

One experiment concerns IL-1β release from THP-1 cells. The experiment in a line: IL-1β Release Assay (Alternate Method), THP-1 cells. Type of experiment: cell-based, human. The note with it: at 0.3 μM; THP-1 cells. The protocol:
THP-1 cells (ATCC Cat #285-IF-100) are plated in 96 well plates at a concentration of 200,000 cells per well and allowed to differentiate in RPMI-1640 media (ATCC Cat #30-2001) containing 10% FBS, 100 IU/mL penicillin, 100 ug/mL streptomycin, 100 ng/mL LPS and 100 ng/mL IFN-γ for 16 hours. Following differentiation, the cells are treated for an additional 2 hours in RPMI-1640 media containing 100 IU/mL penicillin, 100 ug/mL streptomycin and fresh LPS at 100 ng/mL. The cells are then pretreated for 30 minutes with the compound of interest at the appropriate concentration in RPMI media containing 100 IU/mL penicillin, 100 ug/mL streptomycin. Following the pretreatment 2′, 3′-O-(4-benzoylbenzoyl)-adenosine 5′-triphosphate (Sigma Aldrich Cat#B6396) is added to a final concentration of 250 uM and the cells incubated for an additional 45 minutes. 30 uL of cell supernatant is then collected and IL-1β levels determined via ELISA (R&D systems Cat. #HSLB50) according to manufacturer's recommendations using the Tecan Safire plate reader. Background adjusted IL-1β levels of drug treated and non-treated cells are used to calculate the percent inhibition.
`O=C(CC12CC3CC(CC(C3)C1)C2)Nc1ncnc2c1CCN(C(=O)COCc1ccccc1)C2` [Compound 256]: the IL-1β % inhibition result is recorded as “+++ (compound exhibited 50-75% inhibition at 0.3 μM)”.

For `CN1CCOc2cc(S(=O)(=O)N3CCc4c(ncnc4NC(=O)CC45CC6CC(CC(C6)C4)C5)C3)ccc21` [Compound 157], the IL-1β % inhibition result was “+ (compound exhibited 0-25% inhibition at 0.3 μM)”.

With `Cc1cccc(C(=O)N2CCc3c(ncnc3NC(=O)CC34CC5CC(CC(C5)C3)C4)C2)c1` [Compound 230], the IL-1β % inhibition entry was “++++ (compound exhibited 75% or greater inhibition at 0.3 μM)”.

In the case of `COc1ccccc1CCC(=O)Nc1ncnc2c1CCN(Cc1ccncc1)C2` [Compound 133], the IL-1β % inhibition entry is “+ (compound exhibited 0-25% inhibition at 0.3 μM)”.

With `O=C(CC12CC3CC(CC(C3)C1)C2)Nc1ncnc2c1CCN(C(=O)Cc1ccccc1Br)C2` [Compound 302], the IL-1β % inhibition result was “+++ (compound exhibited 50-75% inhibition at 0.3 μM)”.

For the compound `O=C(CC12CC3CC(CC(C3)C1)C2)Nc1ncnc2c1CCN(C(=O)c1ccc(Cl)nc1)C2` [Compound 281], the IL-1β % inhibition entry is “+ (compound exhibited 0-25% inhibition at 0.3 μM)”.

Take `O=C(CC12CC3CC(CC(C3)C1)C2)Nc1ncnc2c1CCN(S(=O)(=O)c1ccccc1F)C2` [Compound 166]: the IL-1β % inhibition entry was “++ (compound exhibited 25-50% inhibition at 0.3 μM)”.

With `Cc1ccccc1S(=O)(=O)N1CCc2c(ncnc2NC(=O)CC23CC4CC(CC(C4)C2)C3)C1` [Compound 199], the IL-1β % inhibition result is listed as “++++ (compound exhibited 75% or greater inhibition at 0.3 μM)”.

`Cc1cc(C(=O)N2CCc3c(ncnc3NC(=O)CC34CC5CC(CC(C5)C3)C4)C2)c(C)o1` [Compound 293]: the IL-1β % inhibition result is recorded as “+++ (compound exhibited 50-75% inhibition at 0.3 μM)”.

Turning to `O=C(CC12CC3CC(CC(C3)C1)C2)Nc1ncnc2c1CCN(Cc1ccc(F)cc1C(F)(F)F)C2` [Compound 107], the IL-1β % inhibition result is recorded as “+ (compound exhibited 0-25% inhibition at 0.3 μM)”.

With `O=C(CC12CC3CC(CC(C3)C1)C2)Nc1ncnc2c1CCN(Cc1cc(C(F)(F)F)ccc1F)C2` [Compound 109], the IL-1β % inhibition entry is recorded as “++ (compound exhibited 25-50% inhibition at 0.3 μM)”.

With `CS(=O)(=O)c1ccc(CN2CCc3c(ncnc3C(=O)NCC3CCCCC3)C2)cc1` [Compound 56], the IL-1β % inhibition entry was “+ (compound exhibited 0-25% inhibition at 0.3 μM)”.

For the compound `O=C(CC12CC3CC(CC(C3)C1)C2)Nc1ncnc2c1CCN(Cc1cccc(OC(F)(F)F)c1)C2` [Compound 114], the IL-1β % inhibition entry is on record as “+ (compound exhibited 0-25% inhibition at 0.3 μM)”.

`O=C(CC12CC3CC(CC(C3)C1)C2)Nc1ncnc2c1CCN(S(=O)(=O)c1ccccc1C(F)(F)F)C2` [Compound 195]: the IL-1β % inhibition result was “+ (compound exhibited 0-25% inhibition at 0.3 μM)”.

On to `COc1cccc(C(=O)N2CCc3c(ncnc3NC(=O)CC34CC5CC(CC(C5)C3)C4)C2)c1` [Compound 250], for which the IL-1β % inhibition result is “+++ (compound exhibited 50-75% inhibition at 0.3 μM)”.

Take `CC(C)(C(=O)Nc1ncnc2c1CCN(S(=O)(=O)Cc1ccc(Cl)c(Cl)c1)C2)C12CC3CC(CC(C3)C1)C2` [Compound 356]: the IL-1β % inhibition result is given as “+ (compound exhibited 0-25% inhibition at 0.3 μM)”.

In the case of `CC(C)(C(=O)Nc1ncnc2c1CCN(S(=O)(=O)Cc1ccc(Cl)cc1)C2)C12CC3CC(CC(C3)C1)C2` [Compound 357], the IL-1β % inhibition entry is reported as “+ (compound exhibited 0-25% inhibition at 0.3 μM)”.

`O=C(NCC12CC3CC(CC(C3)C1)C2)c1ncnc2c1CCN(Cc1ccc3c(c1)OCCO3)C2` [Compound 138]: the IL-1β % inhibition entry is listed as “++++ (compound exhibited 75% or greater inhibition at 0.3 μM)”.

Turning to `O=C(CC12CC3CC(CC(C3)C1)C2)Nc1ncnc2c1CCN(S(=O)(=O)c1ccccc1-c1ccccc1)C2` [Compound 194], the IL-1β % inhibition entry is reported as “++++ (compound exhibited 75% or greater inhibition at 0.3 μM)”.

Consider `O=C(CC12CC3CC(CC(C3)C1)C2)Nc1ncnc2c1CCN(Cc1ccccn1)C2` [Compound 61], for which the IL-1β % inhibition result is given as “+ (compound exhibited 0-25% inhibition at 0.3 μM)”.

Regarding `O=C(NCC1CCCCC1)c1ncnc2c1CCN(Cc1ccc(Cl)cc1)C2` [Compound 51], the IL-1β % inhibition result was “+ (compound exhibited 0-25% inhibition at 0.3 μM)”.

As for `Cc1cc(C(=O)N2CCc3c(ncnc3NC(=O)CC34CC5CC(CC(C5)C3)C4)C2)nn1C` [Compound 284], the IL-1β % inhibition entry is reported as “++ (compound exhibited 25-50% inhibition at 0.3 μM)”.

Take `O=C(CC12CC3CC(CC(C3)C1)C2)Nc1ncnc2c1CCN(S(=O)(=O)c1ccc(F)cc1Cl)C2` [Compound 211]: the IL-1β % inhibition result was “+ (compound exhibited 0-25% inhibition at 0.3 μM)”.

Turning to `Cc1ccc(Cl)c(CN2CCc3c(ncnc3NC(=O)CC34CC5CC(CC(C5)C3)C4)C2)c1F` [Compound 87], the IL-1β % inhibition result was “++ (compound exhibited 25-50% inhibition at 0.3 μM)”.

In the case of `O=C(O)COc1ccc(CN2CCc3c(ncnc3NC(=O)CC34CC5CC(CC(C5)C3)C4)C2)cc1` [Compound 140], the IL-1β % inhibition result is recorded as “+ (compound exhibited 0-25% inhibition at 0.3 μM)”.

`COc1ccc(OC)c(S(=O)(=O)N2CCc3c(ncnc3NC(=O)CC34CC5CC(CC(C5)C3)C4)C2)c1` [Compound 216]: the IL-1β % inhibition entry is “+++ (compound exhibited 50-75% inhibition at 0.3 μM)”.

With `O=C(CC12CC3CC(CC(C3)C1)C2)Nc1ncnc2c1CCN(Cc1ccccc1OC(F)F)C2` [Compound 77], the IL-1β % inhibition entry is recorded as “+ (compound exhibited 0-25% inhibition at 0.3 μM)”.

On to `CC(C)(C(=O)Nc1ncnc2c1CCN(Cc1ccccc1F)C2)C12CC3CC(CC(C3)C1)C2` [Compound 369], for which the IL-1β % inhibition result is “+ (compound exhibited 0-25% inhibition at 0.3 μM)”.

The same experiment, now with this note: at 0.3 μM; THP-1 cells, BzATP-stimulated.
Regarding `O=C(Nc1ncnc2c1CCN(S(=O)(=O)c1ccc(OC(F)(F)F)cc1)C2)C12CC3CC(CC(C3)C1)C2` [Compound 493], the IL-1β % inhibition result is on record as “++ (compound exhibited 25-50% inhibition at 0.3 μM)”.

For `COc1ccc(-c2ccc(S(=O)(=O)N3CCc4c(ncnc4NC(=O)C45CC6CC(CC(C6)C4)C5)C3)cc2)cc1` [Compound 512], the IL-1β % inhibition result was “++ (compound exhibited 25-50% inhibition at 0.3 μM)”.

`N#Cc1cccc(CN2CCc3c(ncnc3NC(=O)C34CC5CC(CC(C5)C3)C4)C2)c1` [Compound 571]: the IL-1β % inhibition entry is “++++ (compound exhibited 75% or greater inhibition at 0.3 μM)”.

`O=C(Nc1ncnc2c1CCN(CC1CCCCC1)C2)C12CC3CC(CC(C3)C1)C2` [Compound 556]: the IL-1β % inhibition result is “+ (compound exhibited 0-25% inhibition at 0.3 μM)”.

Consider `O=C(Nc1ncnc2c1CCN(Cc1ccc3c(c1)OCCO3)C2)C12CC3CC(CC(C3)C1)C2` [Compound 589], for which the IL-1β % inhibition entry is recorded as “+++ (compound exhibited 50-75% inhibition at 0.3 μM)”.

For the compound `O=C(c1ccccc1F)N1CCc2c(ncnc2NC(=O)C23CC4CC(CC(C4)C2)C3)C1` [Compound 452], the IL-1β % inhibition result is recorded as “++ (compound exhibited 25-50% inhibition at 0.3 μM)”.

For `Cc1ccc(C(=O)N2CCc3c(ncnc3NC(=O)C34CC5CC(CC(C5)C3)C4)C2)cc1` [Compound 461], the IL-1β % inhibition entry is given as “+ (compound exhibited 0-25% inhibition at 0.3 μM)”.

As for `O=C(c1c(F)cccc1F)N1CCc2c(ncnc2NC(=O)C23CC4CC(CC(C4)C2)C3)C1` [Compound 419], the IL-1β % inhibition result is recorded as “+ (compound exhibited 0-25% inhibition at 0.3 μM)”.

For `O=C(Cc1ccccc1Br)N1CCc2c(ncnc2NC(=O)C23CC4CC(CC(C4)C2)C3)C1` [Compound 470], the IL-1β % inhibition entry is recorded as “+ (compound exhibited 0-25% inhibition at 0.3 μM)”.
